Experimental data taken from ChEMBL document CHEMBL1148851, “Chemoenzymatic synthesis and in vitro studies on the hydrolysis of antimicrobial monoglycosyl diglycerides by pancreatic lipase” (2007).
≈ marks a conversion by molar mass, not a printed value.

Tests used:
Assay type in all cases: functional
Staphylococcus aureus [1] = assay: Antibacterial activity against Staphylococcus aureus SA87 isolate
Staphylococcus aureus [2] = assay: Antibacterial activity against Staphylococcus aureus ATCC 25923
[3] = system: Mycobacterium tuberculosis; assay: Antibacterial activity against Mycobacterium tuberculosis H160 by dilution method
Bacillus subtilis = assay: Antibacterial activity against Bacillus subtilis ATCC 6633
Staphylococcus aureus [4] = assay: Antibacterial activity against Staphylococcus aureus ATCC 105487
Enterococcus faecalis = assay: Antibacterial activity against Enterococcus faecalis ATCC 29212
Staphylococcus aureus [5] = assay: Antibacterial activity against Staphylococcus aureus SA52 isolate
[6] = system: Mycobacterium tuberculosis; assay: Antibacterial activity against Mycobacterium tuberculosis H37Rv by dilution method
Staphylococcus aureus [7] = assay: Antibacterial activity against Staphylococcus aureus SA85 isolate
Kluyveromyces marxianus = assay: Antifungal activity against Candida pseudotropicalis by dilution method
Escherichia coli = assay: Antibacterial activity against Escherichia coli ATCC 25922
Pseudomonas aeruginosa = assay: Antibacterial activity against Pseudomonas aeruginosa ATCC 27753
[8] = system: Mycobacterium tuberculosis; assay: Antibacterial activity against Mycobacterium tuberculosis H190 by dilution method
Candida albicans = assay: Antifungal activity against Candida albicans by dilution method
[9] = Staphylococcus aureus, read-out: MIC
[10] = Mycobacterium tuberculosis, H160, read-out: MIC
[11] = Bacillus subtilis, ATCC 6633, read-out: MIC
[12] = Mycobacterium tuberculosis, H37Rv, read-out: MIC

Row | Compound | MIC (Staphylococcus aureus [1]; [9]) [µg/mL] | MIC (Staphylococcus aureus [2]) [µg/mL] | MIC [3, 10] [µg/mL] | MIC (Bacillus subtilis; [11]) [µg/mL] | MIC (Staphylococcus aureus [4]) [µg/mL] | MIC (Enterococcus faecalis) [µg/mL] | MIC (Staphylococcus aureus [5]) [µg/mL] | MIC [6, 12] [µg/mL] | MIC (Staphylococcus aureus [7]) [µg/mL] | MIC (Kluyveromyces marxianus) [µg/mL] | MIC (Escherichia coli) [µg/mL] | MIC (Pseudomonas aeruginosa) [µg/mL] | MIC [8] [µg/mL] | MIC (Candida albicans) [µg/mL] | MIC (Staphylococcus aureus [1]) [µg/mL] | MIC (Bacillus subtilis) [µg/mL] | MIC [3] [µg/mL] | MIC [6] [µg/mL]
1 | CCCCCCCC(=O)OCC(CO[C@@H]1O[C@H](CO)[C@H](O)[C@H](O)[C@H]1O)OC(=O)CCCCCCC (stereo not given in full) | 32 (≈ 63.2 µM) | 32 (≈ 63.2 µM) | 128 (≈ 253 µM) | 32 (≈ 63.2 µM) | 32 (≈ 63.2 µM) | 32 (≈ 63.2 µM) | > 128 | 128 (≈ 253 µM) | 32 (≈ 63.2 µM) | > 128 | > 128 | > 128 | 128 (≈ 253 µM) | > 128 | – | – | – | –
2 | CCCCC/C=C\C/C=C\CCCCCCCC(=O)OC(COC(=O)CCCCCCC)CO[C@@H]1O[C@H](CO)[C@H](O)[C@H](O)[C@H]1O (stereo not given in full) | 128 (≈ 199 µM) | > 128 | 64 (≈ 99.6 µM) | 128 (≈ 199 µM) | > 128 | > 128 | > 128 | 64 (≈ 99.6 µM) | > 128 | > 128 | > 128 | > 128 | 128 (≈ 199 µM) | > 128 | – | – | – | –
3 | CCCCCCCC/C=C\CCCCCCCC(=O)OC(COC(=O)CCCCCCCCC)CO[C@@H]1O[C@H](CO)[C@H](O)[C@H](O)[C@H]1O (stereo not given in full) | > 128 | 128 (≈ 190 µM) | > 128 | 32 (≈ 47.6 µM) | > 128 | > 128 | > 128 | > 128 | 128 (≈ 190 µM) | > 128 | > 128 | > 128 | > 128 | > 128 | – | – | – | –
4 | CC/C=C\C/C=C\C/C=C\CCCCCCCC(=O)OC(COC(=O)CCCCCCCCC)CO[C@@H]1O[C@H](CO)[C@H](O)[C@H](O)[C@H]1O (stereo not given in full) | 32 (≈ 47.8 µM) | > 128 | > 128 | > 128 | > 128 | > 128 | > 128 | > 128 | 64 (≈ 95.7 µM) | > 128 | > 128 | > 128 | > 128 | > 128 | – | – | – | –
5 | CCCCC/C=C\C/C=C\CCCCCCCC(=O)OCC(CO[C@@H]1O[C@H](CO)[C@@H](O)[C@H](O)[C@H]1O)OC(=O)CCCCCCC/C=C\C/C=C\CCCCC (stereo in doubt; 9g) | – | – | 64 (≈ 82.1 µM) | – | – | – | – | 64 (≈ 82.1 µM) | – | – | – | – | 128 (≈ 164 µM) | – | 64 (≈ 82.1 µM) | 128 (≈ 164 µM) | – | –
6 | CCCCC/C=C\C/C=C\CCCCCCCC(=O)OC(COC(=O)CCCCCCCCC)CO[C@@H]1O[C@H](CO)[C@H](O)[C@H](O)[C@H]1O (stereo not given in full) | 64 (≈ 95.4 µM) | > 128 | > 128 | 128 (≈ 191 µM) | 64 (≈ 95.4 µM) | 128 (≈ 191 µM) | > 128 | > 128 | 64 (≈ 95.4 µM) | > 128 | > 128 | > 128 | > 128 | > 128 | – | – | – | –
7 | CCCCC/C=C\C/C=C\CCCCCCCC(=O)OCC(CO[C@@H]1O[C@H](CO)[C@@H](O)[C@H](O)[C@H]1O)OC(=O)CCCCCCC/C=C\C/C=C\CCCCC (stereo in doubt; 9q) | 128 (≈ 164 µM) | > 128 | – | 128 (≈ 164 µM) | > 128 | > 128 | > 128 | – | > 128 | > 128 | > 128 | > 128 | – | > 128 | – | – | 128 (≈ 164 µM) | 128 (≈ 164 µM)
8 | CC/C=C\C/C=C\C/C=C\CCCCCCCC(=O)OCC(CO[C@@H]1O[C@H](CO)[C@@H](O)[C@H](O)[C@H]1O)OC(=O)CCCCCCC/C=C\C/C=C\C/C=C\CC (stereo not given in full) | > 128 | > 128 | > 128 | > 128 | > 128 | > 128 | > 128 | > 128 | > 128 | > 128 | > 128 | > 128 | > 128 | > 128 | – | – | – | –
9 | CC/C=C\C/C=C\C/C=C\CCCCCCCC(=O)OC(COC(=O)CCCCCCCCC)CO[C@@H]1O[C@H](CO)[C@@H](O)[C@H](O)[C@H]1O (stereo not given in full) | 32 (≈ 47.8 µM) | > 128 | > 128 | > 128 | > 128 | > 128 | > 128 | > 128 | 64 (≈ 95.7 µM) | > 128 | > 128 | > 128 | > 128 | > 128 | – | – | – | –
10 | CCCCC/C=C\C/C=C\CCCCCCCC(=O)OC(COC(=O)CCCCCCCCC)CO[C@@H]1O[C@H](CO)[C@@H](O)[C@H](O)[C@H]1O (stereo not given in full) | 32 (≈ 47.7 µM) | > 128 | > 128 | 128 (≈ 191 µM) | 32 (≈ 47.7 µM) | 64 (≈ 95.4 µM) | > 128 | > 128 | 32 (≈ 47.7 µM) | > 128 | > 128 | > 128 | > 128 | > 128 | – | – | – | –
11 | CC/C=C\C/C=C\C/C=C\CCCCCCCC(=O)OC(COC(=O)CCCCCCC)CO[C@@H]1O[C@H](CO)[C@@H](O)[C@H](O)[C@H]1O (stereo not given in full) | 64 (≈ 99.9 µM) | > 128 | 128 (≈ 200 µM) | 128 (≈ 200 µM) | > 128 | > 128 | > 128 | 64 (≈ 99.9 µM) | > 128 | > 128 | > 128 | > 128 | 64 (≈ 99.9 µM) | > 128 | – | – | – | –
12 | CCCCCCCCCCCCCC(=O)OCC(CO[C@@H]1O[C@H](CO)[C@H](O)[C@H](O)[C@H]1O)OC(=O)CCCCCCCCCCCCC (stereo not given in full) | > 128 | > 128 | > 128 | > 128 | > 128 | > 128 | > 128 | > 128 | > 128 | > 128 | > 128 | > 128 | > 128 | > 128 | – | – | – | –
13 | CCCCCCCC/C=C\CCCCCCCC(=O)OC(COC(=O)CCCCCCC)CO[C@@H]1O[C@H](CO)[C@H](O)[C@H](O)[C@H]1O (stereo not given in full) | 64 (≈ 99.2 µM) | > 128 | 64 (≈ 99.2 µM) | 128 (≈ 198 µM) | > 128 | > 128 | > 128 | 128 (≈ 198 µM) | > 128 | > 128 | > 128 | > 128 | 64 (≈ 99.2 µM) | > 128 | – | – | – | –
14 | CCCCCCCCCCCC(=O)OCC(CO[C@@H]1O[C@H](CO)[C@H](O)[C@H](O)[C@H]1O)OC(=O)CCCCCCCCCCC (stereo not given in full) | > 128 | > 128 | > 128 | > 128 | > 128 | > 128 | > 128 | > 128 | > 128 | > 128 | > 128 | > 128 | > 128 | > 128 | – | – | – | –
15 | CCCCCCCCCCCCCCCCCC(=O)OCC(CO[C@@H]1O[C@H](CO)[C@H](O)[C@H](O)[C@H]1O)OC(=O)CCCCCCCCCCCCCCCCC (stereo not given in full) | > 128 | > 128 | > 128 | > 128 | > 128 | > 128 | > 128 | > 128 | > 128 | > 128 | > 128 | > 128 | > 128 | > 128 | – | – | – | –
16 | CCCCCCCC/C=C\CCCCCCCC(=O)OC(COC(=O)CCCCCCC)CO[C@@H]1O[C@H](CO)[C@@H](O)[C@H](O)[C@H]1O (stereo not given in full) | 64 (≈ 99.2 µM) | > 128 | 64 (≈ 99.2 µM) | 128 (≈ 198 µM) | > 128 | > 128 | > 128 | 64 (≈ 99.2 µM) | > 128 | > 128 | > 128 | > 128 | 64 (≈ 99.2 µM) | > 128 | – | – | – | –
17 | CCCCCCCCCC(=O)OCC(CO[C@@H]1O[C@H](CO)[C@H](O)[C@H](O)[C@H]1O)OC(=O)CCCCCCCCC (stereo not given in full) | 128 (≈ 227 µM) | 32 (≈ 56.9 µM) | 64 (≈ 114 µM) | > 128 | > 128 | > 128 | > 128 | 128 (≈ 227 µM) | 32 (≈ 56.9 µM) | > 128 | > 128 | > 128 | 64 (≈ 114 µM) | > 128 | – | – | – | –
18 | CCCCCCCC/C=C\CCCCCCCC(=O)OC(COC(=O)CCCCCCCCC)CO[C@@H]1O[C@H](CO)[C@@H](O)[C@H](O)[C@H]1O (stereo not given in full) | > 128 | 8 (≈ 11.9 µM) | > 128 | 32 (≈ 47.6 µM) | > 128 | > 128 | > 128 | > 128 | 128 (≈ 190 µM) | > 128 | > 128 | > 128 | > 128 | > 128 | – | – | – | –
19 | CC/C=C\C/C=C\C/C=C\CCCCCCCC(=O)OC[C@H](CO[C@@H]1O[C@H](CO)C(O)[C@H](O)[C@H]1O)OC(=O)CCCCCCC/C=C\C/C=C\C/C=C\CC (single isomer, unassigned) | > 128 | 128 (≈ 165 µM) | > 128 | > 128 | > 128 | > 128 | > 128 | > 128 | > 128 | > 128 | > 128 | > 128 | > 128 | > 128 | – | – | – | –
20 | CCCCCCCC/C=C\CCCCCCCC(=O)OCC(CO[C@@H]1O[C@H](CO)[C@H](O)[C@H](O)[C@H]1O)OC(=O)CCCCCCC/C=C\CCCCCCCC (stereo not given in full) | > 128 | > 128 | > 128 | > 128 | > 128 | > 128 | > 128 | > 128 | > 128 | > 128 | > 128 | > 128 | > 128 | > 128 | – | – | – | –
